Measurements taken from paper PMC5829251, “NAD^+ analog reveals PARP-1 substrate-blocking mechanism and allosteric communication from catalytic center to DNA-binding domains” (Nature Communications, 2018).
“Also recorded” adds a separate entry of the source.

Columns and labels:
Format in all cases: binding
[1] = molecular target: T1, PARP-1 W246A (Homo sapiens, UniProt P09874, W246A); assay: DSF, full-length PARP-1 W246A with or without DNA; conditions: for TM: Figure 3b, BAD 1250 μM, in °C (unit assumed)
T1 construct: Full-length PARP-1 WT (residues 1–1014) was cloned in pET28 vector and site-directed mutagenesis was performed; made in house; host or cells: E. coli
T1 sequence (P09874 whole entry W246A, the tested form may be a part): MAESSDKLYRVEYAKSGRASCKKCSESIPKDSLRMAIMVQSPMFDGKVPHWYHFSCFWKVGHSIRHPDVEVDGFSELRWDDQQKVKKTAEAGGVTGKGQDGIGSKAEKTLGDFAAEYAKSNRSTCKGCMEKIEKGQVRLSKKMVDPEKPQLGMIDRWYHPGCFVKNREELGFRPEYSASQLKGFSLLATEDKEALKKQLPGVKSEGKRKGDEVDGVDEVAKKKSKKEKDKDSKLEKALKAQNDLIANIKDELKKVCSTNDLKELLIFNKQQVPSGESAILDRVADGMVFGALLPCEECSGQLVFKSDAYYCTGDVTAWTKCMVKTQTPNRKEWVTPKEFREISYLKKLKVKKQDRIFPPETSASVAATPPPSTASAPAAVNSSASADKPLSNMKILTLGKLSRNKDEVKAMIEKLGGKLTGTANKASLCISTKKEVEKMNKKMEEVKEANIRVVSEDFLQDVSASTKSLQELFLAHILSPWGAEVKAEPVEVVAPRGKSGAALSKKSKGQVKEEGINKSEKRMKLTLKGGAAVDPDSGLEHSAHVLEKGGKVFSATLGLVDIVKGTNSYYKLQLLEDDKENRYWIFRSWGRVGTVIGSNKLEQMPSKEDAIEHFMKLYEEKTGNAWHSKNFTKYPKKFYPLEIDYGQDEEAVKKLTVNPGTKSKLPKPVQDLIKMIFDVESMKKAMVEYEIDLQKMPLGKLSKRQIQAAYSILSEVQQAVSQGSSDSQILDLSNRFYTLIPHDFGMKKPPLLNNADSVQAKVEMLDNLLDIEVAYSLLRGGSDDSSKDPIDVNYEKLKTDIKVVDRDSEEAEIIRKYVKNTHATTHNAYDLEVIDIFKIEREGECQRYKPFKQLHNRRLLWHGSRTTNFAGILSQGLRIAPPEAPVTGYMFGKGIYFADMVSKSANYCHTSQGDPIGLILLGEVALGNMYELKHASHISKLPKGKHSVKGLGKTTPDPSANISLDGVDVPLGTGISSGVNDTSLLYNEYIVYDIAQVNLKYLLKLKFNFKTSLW
Method: (§1) DSF experiments were performed as described, [13] using 5 µM protein, 2.5 µM DNA when indicated and various concentrations of compound (BAD, carba-NAD^+, benzamide, and ADP-ribose) as indicated in Fig. 1 and Fig. 3. Experiments were performed on a Roche LightCycler 480 RT-PCR. Reactions including DNA were performed with a 26- or 28-base pair (bp) unphosphorylated oligonucleotide for PARP-1, a 28-bp 5´-phosphorylated (5´P) oligonucleotide for PARP-2, and a 47-bp oligonucleotide including a central 5´P nick for PARP-3^13 in the following buffer: 25 mM Hepes pH 8.0, 150 mM NaCl, 1 mM EDTA, and 0.1 mM TCEP. Reactions with PARP-3 were conducted at lower ionic strength to allow binding to DNA as described (25 mM Hepes pH 8.0, 50 mM NaCl, 1 mM EDTA and 0.1 mM TCEP)[13]. ΔTM values were calculated by subtracting the TM determined for the protein in the absence of compound from the TM determined in the presence of compound. Experiments were performed in triplicate and a Boltzmann sigmoid was fit to the data to determine the TM values (KaleidaGraph).

[2] = molecular target: T2, PARP-1 CAT domain WT (Homo sapiens, UniProt P09874); assay: Differential scanning fluorimetry (DSF), PARP-1 CAT WT; conditions: for change of apparent TM of PARP-1 CAT WT (evidence of binding): 5 μM protein, various amounts of compound; for TM: in °C (unit assumed)
T2 construct: The PARP-1 CAT WT (residues 661–1014) was cloned in pET28 vector; made in house; host or cells: E. coli
T2 sequence (P09874 661-1014): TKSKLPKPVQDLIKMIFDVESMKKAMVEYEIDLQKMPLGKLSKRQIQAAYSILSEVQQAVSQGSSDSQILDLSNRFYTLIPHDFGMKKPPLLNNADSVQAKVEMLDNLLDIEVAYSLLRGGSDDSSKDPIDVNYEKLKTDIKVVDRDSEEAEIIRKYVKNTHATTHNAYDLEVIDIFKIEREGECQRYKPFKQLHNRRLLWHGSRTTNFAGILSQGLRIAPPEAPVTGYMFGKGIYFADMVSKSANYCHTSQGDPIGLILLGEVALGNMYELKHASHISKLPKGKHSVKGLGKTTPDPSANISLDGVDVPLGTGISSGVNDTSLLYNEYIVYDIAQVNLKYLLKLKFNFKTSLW
Method: as §1

[3] = molecular target: T3, full-length PARP-1 WT (Homo sapiens, UniProt P09874); assay: One-dimensional 1H NMR monitoring BAD protons
T3 construct: Full-length PARP-1 WT (residues 1–1014) was cloned in pET28 vector; made in house; host or cells: E. coli
T3 sequence (P09874 whole entry, the tested form may be a part): as the sequence (P09874 whole entry W246A, the tested form may be a part) above, with A246W counted along it
Method: Full-length PARP-1 WT and a dumbbell DNA containing a central 1-nucleotide gap (5′-[…]-3′)[7], were dialyzed against a modified PBS buffer (222 mM NaCl, 2.7 mM KCl, 200 μM DTT, 10 mM sodium phosphate, pH 7.4). An aliquot of the dialysis PBS buffer was then lyophylized and resuspended in deuterated water (D2O). The NMR samples were prepared by diluting the protein (40 μM final), DNA (40 μM final), and BAD (20 μM final) in the deuterated buffer such that all samples contained 85% D2O final. The samples were incubated 30 min at RT prior to collecting the NMR spectra. ^1H (700.303 MHz) NMR spectra were acquired with a Bruker Avance II 700 spectrometer equipped with a 16.4 T narrowbore magnet and a double-resonance (^1 H/^13 C) cryoprobe. All samples were run using 3 mm NMR tubes (180 µL). 1D experiments were acquired with excitation sculpting to suppress residual water signal. The use of D2O as the primary solvent (85%) removed the signals from amide hydrogens in the region of interest (7–9 ppm), however a low-power T1p filter (70 ms) was necessary after the 90-degree excitation pulse to reduce signals from the non-exchangeable hydrogens arising from the large, slowly tumbling protein and DNA.

[4] = molecular target: T4, full-length PARP-1 D766/D770A (Homo sapiens, UniProt P09874, D766A/D770A); assay: ITC, full-length PARP-1 D766/D770A; conditions: for n (stoichiometry): FL D766/D770A; for KD / Kd: FL D766/D770A 40 μM, without DNA, compound 525 μM titrated, 25°C
T4 construct: Full-length PARP-1 WT (residues 1–1014) was cloned in pET28 vector and site-directed mutagenesis was performed; made in house; host or cells: E. coli
T4 sequence (P09874 whole entry D766A/D770A, the tested form may be a part): as the sequence (P09874 whole entry W246A, the tested form may be a part) above, with A246W, D766A, D770A counted along it
Method: (§2) ITC experiments were performed using a MicroCal iTC200 calorimeter (GE Healthcare). BAD or benzamide at 525 μM was titrated into PARP-1 protein (50 μM for CAT WT and CAT ΔHD, 40 μM for full-length PARP-1 WT and mutants) or PARP-1 protein with DNA (20–40 μM) at 25°C. Prior to the experiment, proteins and DNA were dialyzed in 25 mM Hepes pH 8.0, 150 mM NaCl, 1 mM EDTA, and 0.1 mM TCEP. BAD and benzamide were diluted in the dialysis buffer. PARP-1/DNA complexes were assembled and incubated at RT for 30 min prior to performing the experiment. Experiments were typically designed as follows: a first injection of 0.2 μL was followed by 16 injections of 2.5 μL with a spacing of 100 s between injections. Excess heat upon each injection was integrated using an automatically adjusted base line and derived values corrected by heat of dilution. Data analysis and curve fitting were conducted using Origin 7 software. The ITC experiment for each sample was performed either two (PARP-1 WT with benzamide, PARP-1 E763/D766/D770A with benzamide, PARP-1 D766/D770A with BAD) or three times (the remaining eight samples). Table 2 lists the average KD value and stoichiometry (n) for the replicates, and the reported errors are the calculated standard deviations (representing the range of values for experiments repeated two times). We anticipate that the sub-stoichiometric n values for CAT constructs results from either the active fraction being < 100%, or the protein concentration determination being not entirely accurate. The analysis of full-length PARP-1 yielded n values around the expected value of 1.

[5] = molecular target: T5, PARP-1 CAT WT (Homo sapiens, UniProt P09874); assay: Isothermal titration calorimetry (ITC), PARP-1 CAT WT
T5 construct: The PARP-1 CAT WT (residues 661–1014) was cloned in pET28 vector; made in house; host or cells: E. coli
T5 sequence (P09874 661-1014): as the sequence (P09874 661-1014) above
Method: as §2

[6] = Figure 1e, CAT WT 5 μM, compound 25 µM, TM without compound 51.58
[7] = Figure 1e, CAT WT 5 μM, compound 150 µM, TM without compound 51.58
[8] = Figure 1e, CAT WT 5 μM, compound 750 µM, TM without compound 51.58
[9] = Figure 1e, CAT WT 5 μM, compound 1500 µM, TM without compound 51.58
[10] = CAT WT 50 μM, compound 525 μM titrated, 25°C

| SMILES | change of apparent TM of PARP-1 CAT WT (evidence of binding) [2] | TM [2, 6] | TM [2, 7] | TM [2, 8] | TM [2, 9] | n (stoichiometry) [4] | KD [4] | Kd [4] [nM] | other results |
| --- | --- | --- | --- | --- | --- | --- | --- | --- | --- |
| NC(=O)c1cccc(C2OC(COP(=O)(O)OP(=O)(O)OCC3OC(n4cnc5c(N)ncnc54)C(O)C3O)C(O)C2O)c1 (centres unmarked) [BAD, benzamide adenine dinucleotide] | neither BAD nor carba-NAD^+ changed the apparent TM; also recorded: did not show evidence of binding | 51.48 | 51.45 | 51.64 | 51.60 | 0.96 + /− 0.10 | showed evidence of binding | 2490 | TM ([1]; W246A with DNA (2.5 μM), TM without BAD 47.45): 47.41; TM ([1]; W246A, no DNA, TM without BAD 47.24): 47.23; TM shift in the presence of BAD and DNA ([1]; W246A (Zn1–Zn3 interface mutation), relative to WT): substantial reduction in TM shift; increase in TM of PARP-1 CAT containing the HD ([2]; 4 mM BAD): no increase in TM; TM ([2]; Figure 1d, CAT WT 5 μM, compound 50 µM, TM without compound 51.23): 51.06; TM ([2]; Figure 1d, CAT WT 5 μM, compound 250 µM, TM without compound 51.23): 51.09; TM ([2]; Figure 1d, CAT WT 5 μM, compound 1250 µM, TM without compound 51.23): 51.30; TM ([2]; Figure 3d, PARP-1 CAT 5 μM, BAD 4 mM, TM without BAD 51.04): 51.21; level of signal reduction of BAD spectrum peaks ([3]; BAD 20 μM with PARP-1 40 μM and DNA 40 μM (dumbbell DNA, central 1 nt-gap)): ~ 95%; BAD spectrum compared with BAD alone ([3]; BAD 20 μM with PARP-1 40 µM, no DNA): essentially identical spectrum; KD [5, 10]: no measureable heat exchange; also recorded: No binding |
| NC(=O)c1ccccc1 [benzamide] | increased the TM | 52.53 | 54.28 | 54.86 | 57.12 | 0.81 + /− 0.14 | also bound to benzamide similarly | 2810 | n (stoichiometry) ([5]; CAT WT): 0.49 + /− 0.02; Kd [5, 10]: 3.79 µM |
